In experiment [1] the target is T1, Prothrombin (Homo sapiens, UniProt P00734). Briefly: Inhibition of human thrombin.
Experiment [2] addresses T1, Prothrombin. Briefly: Binding affinity to thrombin.

Structures are written as SMILES.

In turn, `N=C(N)NCCCC[C@@H](NC(=O)[C@@H](Cc1ccc(O)cc1)NC(=O)[C@@H]1CCN1C(=O)[C@H](CC1CCCCC1)NC(=O)[C@H]1CC[C@H](CNC(=N)N)CC1)C(N)=O` yielded a Ki on Prothrombin [1] of 3 nM.

Consider `NCCc1c[nH]c2cc(F)ccc12`, for which, at Prothrombin [2], the dissociation constant (Kd) was determined as 6.9 mM.

As a reminder, the Ki is the equilibrium dissociation constant of an inhibitor or competing ligand from its target. Read a low Ki as higher affinity. What is called Kd is the equilibrium constant for the complex coming apart.
